Measurements: US10166229B2, “Compounds and methods for the treatment of cancer” (The Board of Trustees of the University of Illinois, priority 2005, dated 2019)
“Also recorded” adds a separate entry of the source.

What was measured:
active caspase-3 = active caspase-3 (Homo sapiens (Human), UniProt P42574); assay: Effect on fully processed caspase-3 enzyme; type: biochemical
Method: Activation curves. The dose dependence of procaspase-3 activators was determined by adding various concentrations of compound to 90 μL of a 50 ng/mL procaspase-3, active caspase-3, procaspase-7 or active caspase-7 in caspase assay buffer in a 96-well plate. The plate was then incubated for 12 hours at 37° C. 10 μL of a 2 mM solution of Ac-DEVD-pNA (SEQ ID NO: 28) in caspase assay buffer was then added to each well. The plate was read every 2 minutes at 405 nm for 2 hours in a Spectra Max Plus 384 well plate reader. The slope of the linear portion for each well was determined and the fold increase in activation from non-treated control wells was calculated.

HL-60 cells [1] = assay: Cell death induction IC50 (MTS) in HL-60; type: cell-based, human
[2] = tested on: primary colon cancer cells; assay: Cell death in primary cancerous cells from resected colon tumors; type: cell-based, human
[3] = tested on: caspase-3 like activity in HL-60 cells; assay: Caspase-3 like activity in HL-60 cells; type: cell-based, human; conditions: HL-60, 100 μM PAC-1
Method: In vivo determination of caspase-3 like activity. The amount of caspase-3 like protease activity was determined by the amount of Ac-DEVD-pNA (N-acetyl-ASP-Glu-Val-Asp-p-nitroanilide) (SEQ ID NO: 28) cleaved per minute by cell lysates. […] 50 μL of HL-60 cells at a concentration of 5×10^6 cells/mL were added to the plate and incubated for various times. After the incubation period, the plate was spun at 1000×g for 5 minutes to pellet the cells. The cells were then washed with 100 μL of PBS and resuspended in 150 μL of ice cold Caspase Assay Buffer. Each well was then sonicated to lyse the cells. 90 μL of cell lysate was transferred from each well into a new plate. Ac-DEVD-pNA (SEQ ID NO: 28) was added into each well to give a final concentration of 200 μM. […] The slope of the linear portion for each well was determined and the amount of Ac-DEVD-pNA (SEQ ID NO: 28) cleaved per minute was calculated.

HL-60 cells [4] = assay: Annexin V staining (phosphatidylserine exposure); type: cell-based, human
Method: Cells were harvested by centrifugation and washed twice in PBS. The cells were then washed in AnnexinV binding buffer (10 mM HEPES, 140 mM NaCl, 2.5 mM CaCl2, pH 7.4) and resuspended in 100 μL of Annexin V binding buffer. 5 μL of annexin V, Alexa Fluor 488 conjugate was added and the tubes were incubated at room temperature for 15 minutes protected from light. 400 μL of Annexin V binding buffer was then added, followed by the addition of 1 μL of a 1 mg/mL solution of propidium iodide. The fluorescent intensity of each cell was determined by flow cytometry at 525 nm (green channel) and 675 nm (red channel). At least 50,000 cells were analyzed in each experiment.

[5] = tested on: cellular PARP activity in HL-60 cells; assay: In vivo PARP activity assay (PARP cleavage) in HL-60; type: cell-based, human; conditions: HL-60, 100 μM PAC-1
Method: In vivo determination of PARP cleavage. The amount of PARP cleavage was determined by using an in vivo PARP activity assay. To accomplish this, 50 μL of media containing 200 μM NAD^+ was added to the control wells of a 96-well plate. […] 25 μL of HL-60 cells at a concentration of 5×10^6 cells/mL were then added to each well. The cells were incubated for various times and then spun at 1000×g for 5 minutes. The cell media was removed and replaced with 50 μL Lysing PARP Buffer (50 mM Tris, 10 mM MgCl2, pH 8.0, 1% Triton X-100) containing 25 mM H2O2. The plate was then incubated for 60 minutes at 37° C. To determine the amount of NAD^+ still present, 20 μL of 2 M KOH and 20 μL of a 20% (v/v) acetophenone (in ethanol) solution was added to each well of the 96-well plate. The plate was then incubated for 10 minutes at 4° C. 90 μL of an 88% (v/v) formic acid solution was added to each well of the 96-well plate. […] The plate was allowed to cool and then read on a Criterion Analyst AD (Molecular Devices, Sunnyvale, Calif.) with an excitation of 360 nm, an emission of 445 nm and a 400 nm cutoff dichroic mirror. The fluorophore was excited using a 1000 W continuous lamp for 1.6×10^5 μs with 5 reads performed per well. The number of moles of NAD^+ cleaved per minute was then calculated and the remaining PARP activity as compared to control wells was determined.

[6] = tested on: NCI-H226 (lung cancer) xenograft tumors; assay: NCI-H226 subcutaneous xenograft, oral gavage; type: in vivo, mice; conditions: oral gavage once a day for 21 days, 50 or 100 mg/kg
[7] = tested on: NCI-H226 (lung cancer) cells injected i.v.; assay: NCI-H226 i.v. injection lung model, oral gavage; type: in vivo, mice; conditions: 100 mg/kg oral gavage days 1-4 and 7-11, 28 days
[8] = tested on: NCI-H226 (lung cancer) xenograft; assay: NCI-H226 xenograft, intraperitoneal PAC-1; type: in vivo, mice; conditions: i.p. 10 mg/kg
Method: A xenograft model was employed using NCI-H226 (lung cancer) cells. […] A comparison of efficacy was performed with gefitinib (Iressa™; AstraZeneca, Wilmington, Del.) at 40 mg/kg using 5 mice per group.

[9] = Plasma PAC-1 content after pellet implantation; type: in vivo, mice; conditions: female, athymic BALB/c (nude), mouse, other: implantation of a pellet of PAC-1 and cholesterol, 5 mg pellet, after the 54 day experiment
Method: PAC-1 was evaluated in a mouse xenograft model using a slow release mode of drug delivery. In this model, subcutaneous tumors were formed in ovariectomized female athymic BALB/c (nude) mice using the ACHN (renal cancer) cell line. […] Tumor sizes were monitored for about 8 weeks. […] After the mice were sacrificed, plasma samples were taken from each mouse, and the PAC-1 content of each was analyzed.

HL-60 cell line = assay: IC50 of PAC-1 derivatives in HL-60 cell line (Table 5); type: cell-based
Excerpt: The results are indicated in Table 5 (where L- and R-designations refer to structures shown in the AX and BX series above, respectively).

HL-60 cells [10] = assay: Apoptosis induction assay in HL-60 cells, 72 hrs (Table 6); type: cell-based; conditions: Homo sapiens
Method: Compounds DX1-DX17 were tested using the HL-60 cell line for the ability to effect apoptosis, and IC50 values were determined. Activity levels of compounds from assays of 72 hrs duration with HL-60 cells are shown in Table 6 and along with structures in FIG. 12.

Chain of active caspase-3 (P42574 29-175): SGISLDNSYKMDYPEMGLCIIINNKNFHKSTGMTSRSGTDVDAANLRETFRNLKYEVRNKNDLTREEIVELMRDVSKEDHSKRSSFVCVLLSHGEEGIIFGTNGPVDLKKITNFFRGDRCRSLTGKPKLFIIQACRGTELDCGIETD
Chain of active caspase-3 (P42574 176-277): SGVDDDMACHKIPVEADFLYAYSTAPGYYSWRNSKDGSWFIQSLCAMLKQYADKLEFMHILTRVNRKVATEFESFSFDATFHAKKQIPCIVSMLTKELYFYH

Structure (SMILES): C=CCc1cccc(/C=N/NC(=O)CN2CCN(Cc3ccccc3)CC2)c1O [PAC-1]
- effect on catalytic activity of fully processed caspase-3 enzyme (active caspase-3): no effect
- cell death induction in cancer cells in culture (in words) (HL-60 cells [1]): induce death in cancer cells
- IC50 (HL-60 cells [1]; Homo sapiens, HL-60, Table 3, read-out: IC50 (μM) for death induction in HL-60 cells): 0.92 µM
- sensitivity of cells in cancerous tissue in comparison with normal tissue ([2]; FIG. 6B, Patient 3): greater than 80 fold
- IC50 ([2]; Homo sapiens, read-out: IC50 in cancer cells from patient 17, patient 17): 7 nM
- sensitivity of cancer cells versus cells from adjacent normal tissue ([2]; patient 17): over 700 fold
- time to 50% activation of caspase-3-like activity [3]: over 2 hours
- effectiveness in Annexin-V assay (HL-60 cells [4]; 5 μM): effective
- phosphatidylserine exposure on the cell membrane (HL-60 cells [4]; HL-60, 20 h, 100 μM): considerable phosphatidylserine exposure
- cellular PARP activity / PARP-1 cleavage [5]: rapidly reduced; also recorded: induces cleavage of the caspase substrate PARP-1; also recorded: rapid decrease
- tumor growth, NCI-H226 xenograft [6]: significantly retards tumor growth in a dose-dependent manner
- lung tumor mass, NCI-H226 i.v. injection model [7]: clear difference; also recorded: almost no visible gray matter
- growth in tumor volume, NCI-H226 xenograft [8]: associated with reducing growth in tumor volume
- concentration at 54 day [9]: 5 nM
- Fold better than PAC-1 (HL-60 cell line; HL-60 IC50 relative to PAC-1): 1.0 fold
- IC50 (HL-60 cell line; Homo sapiens, HL-60, Table 5): 54600 nM
- IC50 (HL-60 cells [10]): 2800 nM
